# Measurements from patent US7335665B2, “Spirocyclic piperidines as MCH1 antagonists and uses thereof” (H - Lundbeck A/S, priority 2003, dated 2008).
# Read-outs that look alike come from different tables or passages of the source.
# Biological target: T1, rat MCH1 receptor (Rattus norvegicus, UniProt P97639)
# T1 construct: expressed in transfected cells; host or cells: Human embryonic kidney Peak rapid 293 cells (Peakr293), transient, calcium phosphate; membranes
# Test: Radioligand binding assay at cloned rat MCH1 receptor ([3H]Compound A displacement)
# Conditions: cloned rat MCH1, membranes of transfected Peakr293 cells, 0.08 nM [3H]Compound A, 25° C., 90 minutes
# Experimental: For binding assays, pellets of transfected cells are suspended in ice-cold buffer (20 mM Tris.HCl, 5 mM EDTA, pH 7.4) and homogenized by sonication for 7 sec. The cell lysates are centrifuged at 200×g for 5 min at 4° C. The supernatants are then centrifuged at 40,000×g for 20 min at 4° C. The resulting pellets are washed once in the homogenization buffer and suspended in binding buffer (see methods for radioligand binding). Protein concentrations are determined by the method of Bradford (1976) using bovine serum albumin as the standard. Binding assays are usually performed immediately, however it is possible to prepare membranes in batch and store frozen in liquid nitrogen for future use.
# Radioligand binding assays for the rat MCH1 receptor were carried out using plasmid pcDNA3.1-rMCH1-f (ATCC Patent Deposit Designation No. PTA-3505). Plasmid pcDNA3.1-rMCH1-f comprises the regulatory elements necessary for expression of DNA in a mammalian cell operatively linked to DNA encoding the rat MCH1 receptor so as to permit expression thereof. Plasmid pcDNA3.1-rMCH1-f was deposited on Jul. 5, 2001, with the American Type Culture Collection (ATCC), 12301 Parklawn Drive, Rockville, Md. 20852, U.S.A. under the provisions of the Budapest Treaty for the International Recognition of the Deposit of Microorganisms for the Purposes of Patent Procedure and was accorded ATCC Patent Deposit Designation No. PTA-3505.
# Human embryonic kidney Peak rapid 293 cells (Peakr293 cells) were transiently transfected with DNA encoding the MCH1 receptor utilizing the calcium phosphate method and cell membranes were prepared as described above. Binding experiments with membranes from Peakr293 cells transfected with the rat MCH1 receptor were performed with 0.08 nM [^3H]Compound A (custom labeled by Amersham) (the synthesis of Compound A is described in detail below) using an incubation buffer consisting of 50 mM Tris pH 7.4, 10 mM MgCl2, 0.16 mM PMSF, 1 mM 1,10 phenantroline and 0.2% BSA. Binding was performed at 25° C. for 90 minutes. Incubations were terminated by rapid vacuum filtration over GF/C glass fiber filters, presoaked in 5% PEI using […] Tris pH 7.4 as wash buffer. In all experiments, nonspecific binding is defined using […] Compound A.
# The compounds described above were assayed using cloned rat MCH1.
# T1 sequence (P97639 whole entry): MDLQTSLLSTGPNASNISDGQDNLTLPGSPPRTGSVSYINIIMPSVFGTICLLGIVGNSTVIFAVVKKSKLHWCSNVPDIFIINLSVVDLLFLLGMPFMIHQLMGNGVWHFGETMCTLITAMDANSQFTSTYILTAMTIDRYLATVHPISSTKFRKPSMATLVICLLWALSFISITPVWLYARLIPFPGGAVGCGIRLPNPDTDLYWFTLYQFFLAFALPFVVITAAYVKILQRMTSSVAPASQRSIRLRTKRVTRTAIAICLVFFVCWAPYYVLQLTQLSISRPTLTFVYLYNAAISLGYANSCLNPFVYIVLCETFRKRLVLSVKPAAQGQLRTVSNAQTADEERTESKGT
SMILES,Ki (read-out: KI),Ki (KI)
"CC(C)(C)c1cc(C(=O)NCCCCCN2CCC3(C=Cc4ccccc43)CC2)n(Cc2ccccc2)n1 [Example 37, [3-(TERT-BUTYL)-1-BENZYL)PYRAZOL-5-YL]-N-(5-(SPIRO[INDENE-1,4′-PIPERIDINE]-10-YL)PENTYL)CARBOXAMIDE]",794 nM,
"O=C(NCCCN1CCC2(C=Cc3ccccc32)CC1)C(c1ccccc1)c1ccccc1 [Example 38, 2,2-DIPHENYL-N-(3-SPIRO[INDENE-1,4′-PIPERIDINE]-10-YLPROPYL)ACETAMIDE]",6.5 nM,
"O=C(NCCCN1CCC2(CCCc3ccccc32)CC1)C(c1ccccc1)c1ccccc1 [Example 39, 2,2-DIPHENYL-N-(3-SPIRO[1,2,3,4-TETRAHYDRONAPHTHALENE-1,4′-PIPERIDINE]-11-YLPROPYL)ACETAMIDE]",128 nM,
"O=C(NCCCCCN1CCC2(C=Cc3ccccc32)CC1)C(c1ccccc1)c1ccccc1 [Example 40, 2,2-DIPHENYL-N-(5-(SPIRO[INDENE-1,4′-PIPERIDINE]-10-YL)PENTYL)ACETAMIDE]",,384 nM
"O=C(NCCN1CCC2(CCc3ccccc32)CC1)C(c1ccccc1)c1ccccc1 [Example 41, 2,2-DIPHENYL-N-(2-(SPIRO[INDANE-1,4′-PIPERIDINE]-10-YLETHYL) ACETAMIDE]",103 nM,
"O=C(NCCN1CCC2(CCc3ccccc32)CC1)c1cccc2ccccc12 [Example 42, NAPHTHYL-N-(2-(SPIRO[INDANE-1,4′-PIPERIDINE]-10-YLETHYL)CARBOXAMIDE]",,545 nM
"O=C(NCCN1CCC2(CCc3ccccc32)CC1)c1cccc(Cl)c1 [Example 43, (3-CHLOROPHENYL)-N-(2-(SPIRO[INDANE-1,4′-PIPERIDINE]-10-YLETHYL)CARBOXAMIDE]",507 nM,
"O=C(NCCN1CCC2(CCc3ccccc32)CC1)c1cc(Cl)cc(Cl)c1 [Example 44, (3,5-DICHLOROPHENYL)-N-(2-(SPIRO[INDANE-1,4′-PIPERIDINE]-10-YLETHYL)CARBOXAMIDE]",182 nM,
"O=C(NCCN1CCC2(CCc3ccccc32)CC1)c1ccc(F)c(F)c1 [Example 45, (3,4-DIFLUOROPHENYL)-N-(2-(SPIRO[INDANE-1,4′-PIPERIDINE]-10-YLETHYL)CARBOXAMIDE]",802 nM,
CC(C)(C(=O)NCCCN1CCC2(CCc3ccccc32)CC1)c1ccc(Cl)cc1 [Example 46],,84.1 nM
"CC(C(=O)NCCCN1CCC2(CCc3ccccc32)CC1)(c1ccccc1)c1ccccc1 [Example 47, 2,2-DIPHENYL-N-(3-(SPIRO[INDANE-1,4′-PIPERIDINE]-10-YL)PROPYL)PROPANAMIDE]",154 nM,
"Cc1ccc(C(C(=O)NCCCN2CCC3(CCc4ccccc43)CC2)c2ccc(C)cc2)cc1 [Example 48, 2,2-BIS(4-METHYL)PHENYL)-N-(3-(SPIRO[INDANE-1,4′-PIPERIDINE]-10-YL)PROPYL)ACETAMIDE]",,29.7 nM
"O=C(NCCCN1CCC2(CCc3ccccc32)CC1)C(c1ccccc1)(c1ccccc1)c1ccccc1 [Example 49, 2,2,2-TRIPHENYL-N-(3-(SPIRO[INDANE-1,4′-PIPERIDINE]-10-YL)PROPYL)ACETAMIDE]",,121 nM
"CC(C(=O)NCCCN1CCC2(CCc3ccccc32)CC1)c1ccc(Cl)cc1 (stereo not shown) [Example 50, 2-(4-CHLOROPHENYL)-N-(3-(SPIRO[INDANE-1,4′-PIPERIDINE]-10-YL)PROPYL)PROPANAMIDE]",194 nM,
"O=C(NCCCN1CCC2(CCc3ccccc32)CC1)C1(c2ccc(Cl)cc2)CCCC1 [Example 52, [1-(4-CHLOROPHENYL)CYCLOPENTYL]-N-(3-(SPIRO[INDANE-1,4′-PIPERIDINE]-10-YL)PROPYL)CARBOXAMIDE]",112 nM,
"O=C(NCCCN1CCC2(CCc3ccccc32)CC1)C1(c2ccc(Cl)cc2)CCCCC1 [Example 53, 1-[(4-CHLOROPHENYL)CYCLOHEXYL]-N-(3-(SPIRO[INDANE-1,4′-PIPERIDINE]-10-YL)PROPYL)CARBOXAMIDE]",56.9 nM,
"O=C(NCCCN1CCC2(CCc3ccccc32)CC1)C1(c2ccc(F)cc2)CCCC1 [Example 54, [(4-FLUOROPHENYL)CYCLOPENTYL]-N-(3-(SPIRO[INDANE-1,4′-PIPERIDINE]-10-YL)PROPYL)CARBOXAMIDE]",,208 nM

SMILES,Ki (read-out: KI),Ki (KI)
"O=C(NCCCN1CCC2(CCc3ccccc32)CC1)C(c1ccc(Cl)cc1)c1ccc(Cl)cc1 [Example 55, 2,2-BIS(4-CHLOROPHENYL)-N-(3-(SPIRO[INDANE-1,4′-PIPERIDINE]-10-YL)PROPYL)ACETAMIDE]",8.6 nM,
"O=C(NCCCN1CCC2(CCc3ccccc32)CC1)C1(c2ccc(F)cc2)CCCCC1 [Example 56, [1-(4-FLUOROPHENYL)CYCLOHEXYL]-N-(3-(SPIRO[INDANE-1,4′-PIPERIDINE]-10-YL)PROPYL)CARBOXAMIDE]",108 nM,
"O=C(NCCCN1CCC2(CCc3ccccc32)CC1)C(c1ccc(F)cc1)c1ccc(F)cc1 [Example 57, 2,2-BIS(4-FLUOROPHENYL)-N-(3-(SPIRO[INDANE-1,4′-PIPERIDINE]-10-YL)PROPYL)ACETAMIDE]",4.2 nM,
"O=C(NCCCN1CCC2(CCc3ccccc32)CC1)C1(c2ccc(Cl)cc2)CC1 [Example 58, [1-(4-CHLOROPHENYL)CYCLOPROPYL]-N-(3-(SPIRO[INDANE-1,4′-PIPERIDINE]-10-YL)PROPYL)CARBOXAMIDE]",150 nM,
"O=C(NCCCN1CCC2(CCc3ccccc32)CC1)C1(c2ccc(Cl)cc2)CCC1 [Example 59, [1-(4-CHLOROPHENYL)CYCLOBUTYL]-N-(3-(SPIRO[INDANE-1,4′-PIPERIDINE]-10-YL)PROPYL)CARBOXAMIDE]",,175 nM
"O=C(NCCCCN1CCC2(CCc3ccccc32)CC1)c1ccc(F)c(F)c1 [Example 60, (3,4-DIFLUOROPHENYL)-N-(4-(SPIRO[INDANE-1,4′-PIPERIDINE]-10-YL)BUTYL)CARBOXAMIDE]",42.3 nM,
"O=C(NCCCN1CCC2(CC1)Cc1ccccc1C2)C(c1ccccc1)c1ccccc1 [Example 61, 2,2-DIPHENYL-N-(3-(SPIRO[INDANE-2,4′-PIPERIDINE]-10-YL)PROPYL)ACETAMIDE]",49 nM,
"Cc1ccc(C(C(=O)NCCCN2CCC3(C=Cc4ccccc43)CC2)c2ccc(C)cc2)cc1 [Example 62, 2,2-BIS(4-METHYL)PHENYL)-N-(3-(SPIRO[INDENE-1,4′-PIPERIDINE]-10-YL)PROPYL)ACETAMIDE]",26 nM,
"CC(C(=O)NCCCN1CCC2(C=Cc3ccccc32)CC1)(c1ccccc1)c1ccccc1 [Example 63, 2,2-DIPHENYL-N-(3-(SPIRO[INDENE-1,4′-PIPERIDINE]-10-YL)PROPYL)PROPANAMIDE]",,46 nM
"O=C(NCCCN1CCC2(C=Cc3ccccc32)CC1)C(c1ccccc1)(c1ccccc1)c1ccccc1 [Example 64, 2,2,2-TRIPHENYL-N-(3-(SPIRO[INDENE-1,4′-PIPERIDINE]-10-YL)PROPYL)ACETAMIDE]",,36 nM
"CC(C)(C(=O)NCCCN1CCC2(C=Cc3ccccc32)CC1)c1ccc(Cl)cc1 [Example 65, 2-(4-CHLOROPHENYL)-2-METHYL-N-(3-(SPIRO[INDENE-1,4′-PIPERIDINE]-10-YL)PROPYL)PROPANAMIDE]",,78 nM
"CC(C(=O)NCCCN1CCC2(C=Cc3ccccc32)CC1)c1ccc(Cl)cc1 (stereo not shown) [Example 66, 2-(4-CHLOROPHENYL)-N-(3-(SPIRO[INDENE-1,4′-PIPERIDINE]-10-YL)PROPYL)PROPANAMIDE]",140 nM,
"O=C(NCCCN1CCC2(C=Cc3ccccc32)CC1)C(c1ccc(F)cc1)c1ccc(F)cc1 [Example 67, 2,2-BIS(4-FLUOROPHENYL)-N-(3-(SPIRO[INDENE-1,4′-PIPERIDINE]-10-YL)PROPYL)ACETAMIDE]",,2.4 nM
"O=C(NCCCN1CCC2(C=Cc3ccccc32)CC1)C(c1ccc(Cl)cc1)c1ccc(Cl)cc1 [Example 68, 2,2-BIS(4-CHLOROPHENYL)-N-(3-(SPIRO[INDENE-1,4′-PIPERIDINE]-10-YL)PROPYL)ACETAMIDE]",5.8 nM,
"O=C(NCCCN1CCC2(C=Cc3ccccc32)CC1)C1(c2ccc(Cl)cc2)CCCC1 [Example 69, [(4-CHLOROPHENYL)CYCLOPENTYL]-N-(3-(SPIRO[INDENE-1,4′-PIPERIDINE]-10-YL)PROPYL)CARBOXAMIDE]",104 nM,
"O=C(NCCCN1CCC2(C=Cc3ccccc32)CC1)C1(c2ccc(F)cc2)CCCC1 [Example 70, [(4-FLUOROPHENYL)CYCLOPENTYL]-N-(3-(SPIRO[INDENE-1,4′-PIPERIDINE]-10-YL)PROPYL)CARBOXAMIDE]",203 nM,
"O=C(NCCCN1CCC2(C=Cc3ccccc32)CC1)C1(c2ccc(Cl)cc2)CCCCC1 [Example 71, [(4-CHLOROPHENYL)CYCLOHEXYL]-N-(3-(SPIRO[INDENE-1,4′-PIPERIDINE]-10-YL)PROPYL)CARBOXAMIDE]",71 nM,
